Results as given in patent publication US20030061671A1, “Thioxanthone dyes with improved solubility and a method of preparing 2-oxybenzanthrones as intermediate materials for making of these dyes” (priority 2001, published 2003).
Read-outs that look alike come from different tables or passages of the source.

Assays:
[1] = Solubility comparison in chloroform (chloroform added to 0.1 g dye until full solubility); format: physicochemical
Procedure: Solubility Comparison of the Claimed compound and the Prototype
Two mixtures were prepared for comparison. The first one contained a dye prepared as per Example 1 by taking 0.1 g of the dye and adding chloroform until full solubility. The second mixture was prepared using 0.1 g of 6-methoxy-14H-anthra(2,1,9-mna)thioxanthene-14-one dye and also adding chloroform until its full solubility. At the end, 30 ml of chloroform was required to solute 0.1 g of the dye in the first mixture while 120 ml of the chloroform was required to solute the same amount of dye in case of the prototype.

[2] = colorant described by Carlini et al.; cited from earlier work

COc1cc2c3ccccc3c(=O)c3ccc4c5ccccc5sc1c4c32 [6-methoxy-14H-anthra(2,1,9-mna)thioxanthene-14-one]
chloroform required to solute 0.1 g of the dye [1]: 120 mL
solubility in organic solvents and polymer materials [2]: poorly soluble

6-n-Octyloxy-14H-anthra(2,1,9 mna)thioxanthene-14-one [Example 1]
chloroform required to solute 0.1 g of the dye ([1]; 0.1 g dye, chloroform added until full solubility): 30 mL
improvement in solubility in chloroform versus prototype ([1]; claimed dye vs 6-methoxy prototype, chloroform): four-fold
